The source of these data is patent US10245249B2, “Pharmaceutical compositions comprising nitroxyl donors” (Cardioxyl Pharmaceuticals, Inc., priority 2013, dated 2019).

Molecules are shown by their SMILES.

Data set [1] deals with heart failure canines. Kind of data set: Hemodynamic efficacy in heart failure canines (tachycardia-pacing model). The conditions noted are these: for ESP / ESPVR / HR / PRSW / SW / Tau / EDV: heart failure canines, i.v. infusion; for ESP / ESPVR / HR / PRSW / SW / Tau: Dose Rate (μmol/kg/min): CXL-1020 100, (1) 75, (2) 100, (83) 65, (84) 77; for EDV: Dose Rate : CXL-1020 100, (1) 75, (2) 100, (83) 65, (84) 77; for hemodynamic activity compared with CXL-1020: both normal and failing canine models, FIG. 1. Format: in vivo, beagle dogs. The procedure: The cardiovascular effects of nitroxyl donors were examined by means of pressure-volume (PV) curve (loops) analysis in conscious, sling-restrained beagle dogs. Animals were allowed free access to drinking water and a commercial canine diet under standard laboratory conditions. Fluorescent lighting was provided via an automatic timer for approximately 12 hours per day. On occasion, the dark cycle was interrupted intermittently due to study-related activities. Temperature and humidity were monitored and recorded daily and maintained to the maximum extent possible between 64° F. and 84° F. and 30% to 70%, respectively. The dogs were acclimated for a period of at least 1 week prior to surgery. Following surgery and recovery the animals were acclimated to sling restraint for a period up to 4.5 hours. Animals were fasted overnight prior to surgery. An indwelling venous catheter was placed in peripheral vein (e.g., cephalic) for administration of anesthetic. General anesthesia was induced intravenously (bolus) with buprenorphine (about 0.015 mg/kg) followed by an intravenous bolus of propofol (about 6 mg/kg). Additionally, a prophylactic antibiotic (cefazolin 20 to 50 mg/kg via i.v.) was given upon induction. […] Anesthesia was maintained with inhaled isoflurane (1% to 3%). Once a stable (surgical) plane of anesthesia had been established, a left-thoracotomy was performed (under strict aseptic conditions) and each animal was chronically instrumented with sono-micrometry crystals providing left-ventricular (LV) dimensions/volume. Additionally, a fluid-filled catheter and a solid-state monometer were placed in the left ventricle for pressure monitoring. A fluid-filled catheters was placed in the right ventricle (RV) and the aorta (Ao) for pressure monitoring/test article administration. […] The catheters/wires were aseptically tunneled and externalized between the scapulae. Over the course of the study, fluid-filled catheters were regularly (at least once weekly) flushed with a locking-solution in order to prevent both clotting and bacterial growth (2-3 mL of Taurolidine-Citrate solution, TCS-04; Access Technologies). Following the cardiovascular instrumentation, the right jugular vein was carefully exposed and cannulated with a bipolar pacing lead/catheter ([…]® Novus; Medtronic). Under fluoroscopic guidance, this pacing lead was advanced normograde into the right ventricle and actively affixed (screwed in) to the apical endocardium. The proximal end of the lead was secured to the pacing device (Kappa 900; Medtronic). Subsequently, the pacemaker was placed/secured in a subcutaneous pocket in the neck. Considering that the heart was exposed via a thoracotomy, a bipolar pacing wire was secured in the right ventricular mid-myocardium. This pacing lead was tunneled/externalized between the scapulae, and used in conjunction with an external impulse generator/pacemaker. The implanted endocardial pacemaker was used as a back-up to the external/epicardial pacemaker. Prior to closure of the chest from the thoracotomy, a chest tube was placed for drainage of any fluid and/or gas that accumulated from the surgical procedure. The tube was aspirated twice daily until the amount of fluid removed was less than 35 mL per aspiration in an approximately 24 hour period. The chest tube was then removed. All animals were administered a prophylactic antibiotic (cefazolin 20 to 50 mg/kg via i.v.) and pain medication (meloxicam at about 0.2 mg/kg via i.v.). If necessary, an additional analgesic was also administered which included a fentanyl patch (25 to 50 mcg/hour). All surgical incisions were closed in layers; the underlying musculature was closed with absorbable sutures and the skin was closed with staples. Following surgery, the animals were allowed to recover for at least 14 days. Cephalexin (20 to 50 mg/kg) was administered orally BID for at least 7 days and meloxicam (0.1 mg/kg) was administered SID orally or subcutaneously for at least 2 days after surgery. […]

In data set [2] the test system is dogs. Nature of the data set: Canine implanted central catheter 72 hour continuous infusion model (clinical and microscopic pathology of vasculature). Format: in vivo. As to conditions: for NOAEL (μg/kg/min) (molar equivalent to CXL-1020): based on microscopic pathology markers (edema, hemorrhage, vascular and perivascular inflammation); for toxicological profile relative to CXL-1020: microscopic pathology, Table 8. The procedure: To determine the cause of the inflammation and hind limb swelling, a series of 72-hour continuous infusion investigative studies were conducted over the following 6 months. […] The first site of inflammation, the catheter insertion site, caused the dog hind limb swelling and inflammation observed in the early-terminated follow-up study. Increasing infusate pH from 4 to 6 decreased inflammation, improving the inflammatory profile by approximately 3-fold (see FIG. 4).
Confirmation of this was obtained through evaluating the nitroxyl donors through detailed histopathology of the vasculature at the site of insertion of into the femoral vein (15 cm distal to the catheter tip), along the catheter track to the catheter tip, and past the tip downstream 20 cm.
A composite score was calculated from the sum of these findings scores. In FIG. 3, the cumulative histology composite score ranges from 0-2 (low severity) to 11-12 (high severity). […] The NOAEL values determined based on these microscopic pathology markers for a series of nitroxyl donors, expressed in molar equivalent dose rates (μg/kg/min) to CXL-1020, are provided in Table 8.

As to `CS(=O)(=O)c1ccccc1S(=O)(=O)NO` [CXL-1020, N-hydroxy-2-methanesulfonylbenzene-1-sulfonamide, reference compound], in data set [1], the ESP is listed as −14.78 ± 3.24 % Change from Baseline, the ESPVR is listed as 45.42 ± 16.48 % Change from Baseline, the HR is reported as −0.23 ± 2.25 % Change from Baseline and the PRSW is given as 21.97 ± 3.79 % Change from Baseline. In data set [1], the SW is on record as −12.01 ± 4.24 % Change from Baseline, the Tau is −17.27 ± 1.39 % Change from Baseline and the EDV was −12.03 ± 3.72 % Change from Baseline. In addition, the “findings around catheter insertion site, at catheter tip and downstream” value in data set [2] (72-hour infusion, dogs) is “Vascular inflammation”. Also, in data set [2], the “NOAEL (μg/kg/min) (molar equivalent to CXL-1020)” value (“NOAEL (μg/kg/min)” for short) is under 3 µg/kg/min. The “dose rates at which significant undesirable side effects were still demonstrated” value in data set [2] (infusate pH 6, dogs) is “greater than or equal to 3 μg/kg/min”. The “dose rates causing clinical pathology changes consistent with an inflammatory process” value in data set [2] (pH 4 formulation, 1:1 molar CXL-1020:CAPTISOL, diluted in 5% dextrose, 72-hour infusion, dogs) is “greater than or equal to 0.03 μg/kg/min”.

As to `Cc1ccc(S(=O)(=O)NO)o1` [Compound 1, N-Hydroxy-5-methylfuran-2-sulfonamide], in data set [1], the “hemodynamic activity compared with CXL-1020” value is “comparable hemodynamic activity to CXL-1020”, the ESP was −17 ± 1 % Change from Baseline, the ESPVR is given as 29 ± 1 % Change from Baseline and the HR is reported as −6 ± 2 % Change from Baseline. In data set [1], the PRSW was found to be 22 ± 1 % Change from Baseline, the SW came out at 10 ± 5 % Change from Baseline, the Tau is −16 ± 4 % Change from Baseline and the EDV is −9 ± 2 % Change from Baseline. For the same compound, the “NOAEL (μg/kg/min)” value in data set [2] was at least 180 µg/kg/min.

As to `CS(=O)(=O)c1cccc(S(=O)(=O)NO)c1` [Compound 2, N-Hydroxy-3-methanesulfonylbenzene-1-sulfonamide], in data set [1], the “hemodynamic activity compared with CXL-1020” value is reported as “comparable hemodynamic activity to CXL-1020”, the ESP is recorded as −13.83 ± 3.30 % Change from Baseline, the ESPVR came to 22.84 ± 5.69 % Change from Baseline and the HR is reported as −1.36 ± 2.06 % Change from Baseline. In addition, in data set [1], the PRSW turned out to be 17.91 ± 1.47 % Change from Baseline, the SW was −9.41 ± 2.84 % Change from Baseline, the Tau was −12.51 ± 2.72 % Change from Baseline and the EDV is listed as −3.26 ± 1.05 % Change from Baseline. In addition, in data set [2], the “NOAEL (μg/kg/min)” value was at least 180 µg/kg/min.

Regarding `O=S(=O)(NO)c1ccco1` [Compound 83, N-Hydroxyfuran-2-sulfonamide], in data set [1], the “hemodynamic activity compared with CXL-1020” value is listed as “comparable hemodynamic activity to CXL-1020”, the ESP is recorded as −18.52 ± 2.59 % Change from Baseline, the ESPVR came out at 38.06 ± 8.79 % Change from Baseline and the HR is 0.05 ± 1.25 % Change from Baseline. In data set [1], the PRSW was 14.90 ± 2.27 % Change from Baseline, the SW is −9.63 ± 1.70 % Change from Baseline, the Tau was −18.32 ± 3.06 % Change from Baseline and the EDV is reported as −4.91 ± 0.57 % Change from Baseline. In addition, in data set [2], the “NOAEL (μg/kg/min)” value was at least 90 µg/kg/min and the “toxicological profile relative to CXL-1020” value is reported as “substantially improved toxicological profile relative to CXL-1020”.

On to `Cc1ccc(S(=O)(=O)NO)s1` [Compound 84, N-Hydroxy-5-methylthiophene-2-sulfonamide], for which, in data set [1], the “hemodynamic activity compared with CXL-1020” value is “comparable hemodynamic activity to CXL-1020”, the ESP is listed as −13.72 ± 2.83 % Change from Baseline, the ESPVR is reported as 51.01 ± 5.85 % Change from Baseline and the HR came out at 3.72 ± 2.45 % Change from Baseline. In addition, in data set [1], the PRSW is 25.03 ± 2.52 % Change from Baseline, the SW is listed as −5.96 ± 1.58 % Change from Baseline, the Tau came out at 15.61 ± 1.58 % Change from Baseline and the EDV was −13.43 ± 4.63 % Change from Baseline. For the same compound, in data set [2], the “NOAEL (μg/kg/min)” value is at least 60 µg/kg/min and the “toxicological profile relative to CXL-1020” value is listed as “substantially improved toxicological profile relative to CXL-1020”.

For the compound `Cn1ccc(S(=O)(=O)NO)n1` [Compound 85, N-Hydroxy-1-methyl-1H-pyrazole-3-sulfonamide], the “hemodynamic activity compared with CXL-1020” value in data set [1] is recorded as “comparable hemodynamic activity to CXL-1020”. Further, in data set [2], the “NOAEL (μg/kg/min)” value was at least 180 µg/kg/min and the “toxicological profile relative to CXL-1020” value is listed as “substantially improved toxicological profile relative to CXL-1020”.
